Results from PubChem BioAssay AID212 (DTP/NCI, 2004).
Values joined by “and” are separate entries in the source; they are usually repeats but may differ in a detail not shown here. Equal entries are not always repeated. Results filed as inconclusive are left out. Where a SMILES comes first, the peptide text is derived from it. Bridges are numbered along the chain shown (N, C = ends). Roman numbers before positions name the chains, in order. [ ]: non-standard residue; d: D form. The star is where a group is joined. Quinoxaline2carbonyl = O=C(c1cnc2ccccc2n1)*; NMeV = CN[CH](C(=O)O)C(C)C; NMeC = CN[CH](CS)C(=O)O

System: BDF1 mice, colon carcinoma 38 sc, T/C %
Test: NCI In Vivo Anticancer Drug Screen. Data for tumor model Colon Carcinoma 38 (subcutaneous) in B6D2F1 (BDF1) mice
Conditions: endpoint: median tumor weight (est.), higher = larger tumour
Outline: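 Ratio of survival or tumor size, compound-treated animals relative to vehicle controls, in tumor-bearing mice.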

[1] = dose: 25.0 mg/kg/injection, schedule: Q07DX002 (ip), vehicle: saline
[2] = dose: 50.0 mg/kg/injection, schedule: Q07DX002 (ip), vehicle: saline
[3] = dose: 100.0 mg/kg/injection, schedule: Q07DX002 (ip), vehicle: saline
[4] = dose: 200.0 mg/kg/injection, schedule: Q07DX002 (ip), vehicle: saline
[5] = dose: 400.0 mg/kg/injection, schedule: Q07DX002 (ip), vehicle: saline
[6] = dose: 12.5 mg/kg/injection, schedule: Q07DX002 (ip), vehicle: saline with Tween-80
[7] = dose: 25.0 mg/kg/injection, schedule: Q07DX002 (ip), vehicle: saline with Tween-80
[8] = dose: 200.0 mg/kg/injection, schedule: Q07DX002 (ip), vehicle: saline with Tween-80

For `O=c1[nH]cnc2c1ccn2C1OC(CO)C(O)C1O` (stereo not drawn), which T/C (dose: 1.5 mg/kg/injection, schedule: Q07DX002 (ip), vehicle: saline) is on record?
The T/C was 88 % of control.

What about the T/C (dose: 3.0 mg/kg/injection, schedule: Q07DX002 (ip), vehicle: saline) of the same compound?
Its T/C is 118 % of control.

What about the T/C (dose: 6.0 mg/kg/injection, schedule: Q07DX002 (ip), vehicle: saline) of the same compound?
The T/C was 100 % of control.

And the T/C (dose: 12.0 mg/kg/injection, schedule: Q07DX002 (ip), vehicle: saline)?
The T/C was 86 % of control.

And the T/C (dose: 24.0 mg/kg/injection, schedule: Q07DX002 (ip), vehicle: saline)?
The T/C was 63 % of control.

Which results are given for `CC(=O)OCC1OC(n2cc(CBr)nn2)C(OC(C)=O)C(OC(C)=O)C1OC(C)=O` (stereo not drawn)?
T/C (dose: 6.25 mg/kg/injection, schedule: Q07DX003 (ip), vehicle: Klucel (hydroxypropylcellulose) (HPC)): 46 % of control; T/C (dose: 6.25 mg/kg/injection, schedule: Q07DX003 (ip), vehicle: saline with Tween-80): 120 % of control; T/C (dose: 12.5 mg/kg/injection, schedule: Q07DX003 (ip), vehicle: Klucel (hydroxypropylcellulose) (HPC)): 93 % of control; T/C (dose: 12.5 mg/kg/injection, schedule: Q07DX003 (ip), vehicle: saline with Tween-80): 67 % of control; T/C (dose: 25.0 mg/kg/injection, schedule: Q07DX003 (ip), vehicle: Klucel (hydroxypropylcellulose) (HPC)): 120 % of control; T/C (dose: 25.0 mg/kg/injection, schedule: Q07DX003 (ip), vehicle: saline with Tween-80): 90 % of control; T/C (dose: 50.0 mg/kg/injection, schedule: Q07DX003 (ip), vehicle: saline with Tween-80): 53 % of control; T/C (dose: 100.0 mg/kg/injection, schedule: Q07DX003 (ip), vehicle: saline with Tween-80): 64 % of control

`CCCCCCCCSC1=C(Cl)C(=O)C(OC)=C(OC)C1=O` was tested. Which T/C (dose: 1.56 mg/kg/injection, schedule: Q07DX002 (ip), vehicle: saline with Tween-80) did it give?
The T/C was 94 % of control and 95 % of control.

For `N#CN=[N+]([O-])c1ccc(C(=O)O)cc1`, which T/C (dose: 3.75 mg/kg/injection, schedule: Q07DX002 (ip), vehicle: Klucel (hydroxypropylcellulose) (HPC)) is on record?
Its T/C is 117 % of control and 123 % of control.

What about the T/C (dose: 7.5 mg/kg/injection, schedule: Q07DX002 (ip), vehicle: Klucel (hydroxypropylcellulose) (HPC)) of the same compound?
The T/C was 124 % of control.

What about the T/C (dose: 15.0 mg/kg/injection, schedule: Q07DX002 (ip), vehicle: Klucel (hydroxypropylcellulose) (HPC)) of the same compound?
Its T/C is 87 % of control.

And the T/C (dose: 60.0 mg/kg/injection, schedule: Q07DX002 (ip), vehicle: Klucel (hydroxypropylcellulose) (HPC))?
Its T/C is 159 % of control.

Which results are given for `CC1NC(=O)C(NC(=O)c2cnc3ccccc3n2)COC(=O)C(C(C)C)N(C)C(=O)C2CSSCC(C(=O)N(C)C(C(C)C)C(=O)OCC(NC(=O)c3cnc4ccccc4n3)C(=O)NC(C)C(=O)N2C)N(C)C1=O` (stereo not drawn) (I: Quinoxaline2carbonyl-SA[NMeC][NMeV] / II: Quinoxaline2carbonyl-SA[NMeC][NMeV]; ester I:1-II:C, I:C-II:1; disulfide I:3-II:3; configuration not given here)?
T/C (dose: 25.0 micrograms/kg/injection, schedule: Q07DX002 (ip), vehicle: Klucel (hydroxypropylcellulose) (HPC)): 102 % of control; T/C (dose: 50.0 micrograms/kg/injection, schedule: Q07DX002 (ip), vehicle: Klucel (hydroxypropylcellulose) (HPC)): 74 % of control; T/C (dose: 100.0 micrograms/kg/injection, schedule: Q07DX002 (ip), vehicle: Klucel (hydroxypropylcellulose) (HPC)): 84 % of control; T/C (dose: 200.0 micrograms/kg/injection, schedule: Q07DX002 (ip), vehicle: Klucel (hydroxypropylcellulose) (HPC)): 95 % of control

What does the source list for `CC1CN1C(=O)NCCCCCCNC(=O)N1CC1C` (stereo not drawn)?
T/C (dose: 5.0 mg/kg/injection, schedule: Q07DX003 (ip), vehicle: Klucel (hydroxypropylcellulose) (HPC)): 73 % of control and 90 % of control; T/C (dose: 20.0 mg/kg/injection, schedule: Q07DX003 (ip), vehicle: Klucel (hydroxypropylcellulose) (HPC)): 15 % of control and 34 % of control; T/C (dose: 40.0 mg/kg/injection, schedule: Q07DX003 (ip), vehicle: Klucel (hydroxypropylcellulose) (HPC)): 34 % of control

How did the T/C [1] turn out when `O=C1N(CC2CO2)CCN1CC1CO1` (stereo not drawn) was run?
The T/C was 39 % of control.

And the T/C [2]?
The T/C was 26 % of control.

What about the T/C [3] of the same compound?
Its T/C is 41 % of control.

And the T/C [4]?
The T/C was 41 % of control.

And the T/C [5]?
Its T/C is 29 % of control.

What does the source list for `Nc1c(C(=O)O)[nH]c(=O)[nH]c1=O`?
T/C [6]: 104 % of control; T/C [7]: 100 % of control; T/C (dose: 50.0 mg/kg/injection, schedule: Q07DX002 (ip), vehicle: saline with Tween-80): 80 % of control; T/C [8]: 123 % of control

What does the source list for `N=C(N)Sc1cc(O)ccc1O`?
T/C (dose: 12.5 mg/kg/injection, schedule: Q07DX003 (ip), vehicle: saline): 88 % of control; T/C (dose: 25.0 mg/kg/injection, schedule: Q07DX003 (ip), vehicle: saline): 66 % of control; T/C (dose: 50.0 mg/kg/injection, schedule: Q07DX003 (ip), vehicle: saline): 77 % of control; T/C (dose: 100.0 mg/kg/injection, schedule: Q07DX003 (ip), vehicle: saline): 103 % of control; T/C (dose: 200.0 mg/kg/injection, schedule: Q07DX003 (ip), vehicle: saline): 55 % of control

`CCCCCC(O)C1C(=O)OC(C)C(O)/C=C/C=C/C=C/C=C/C=C(\C)C(O)C(O)C(O)CC(O)CC(O)CC(O)CC(O)CC1O` (stereo not drawn) was tested. Which T/C (dose: 0.5 mg/kg/injection, schedule: Q07DX002 (ip), vehicle: saline) did it give?
Its T/C is 92 % of control.

And the T/C (dose: 1.0 mg/kg/injection, schedule: Q07DX002 (ip), vehicle: saline)?
The T/C was 118 % of control.

What about the T/C (dose: 4.0 mg/kg/injection, schedule: Q07DX002 (ip), vehicle: saline) of the same compound?
Its T/C is 90 % of control.

What about the T/C (dose: 8.0 mg/kg/injection, schedule: Q07DX002 (ip), vehicle: saline) of the same compound?
The T/C was 95 % of control.

For `O=Cc1ccc(C(Cl)(Cl)Cl)cc1`, which T/C [6] is on record?
Its T/C is 47 % of control.

And the T/C (dose: 12.5 mg/kg/injection, schedule: Q07DX002 (ip), vehicle: saline)?
The T/C was 78 % of control.

What about the T/C [7] of the same compound?
Its T/C is 74 % of control.

And the T/C [1]?
The T/C was 79 % of control.

What about the T/C [2] of the same compound?
Its T/C is 74 % of control.

What about the T/C (dose: 100.0 mg/kg/injection, schedule: Q07DX002 (ip), vehicle: saline with Tween-80) of the same compound?
Its T/C is 93 % of control.

And the T/C [3]?
Its T/C is 88 % of control.

And the T/C [8]?
Its T/C is 66 % of control.

And the T/C [4]?
The T/C was 67 % of control.

And the T/C [5]?
Its T/C is 82 % of control.
